Measurements taken from US20260041677A1, “COMPOSITIONS AND METHODS FOR TREATING ADENOID CYSTIC CARCINOMA” (ELEVAR THERAPEUTICS, INC., priority 2022, published 2026).
“And” between values parts separate entries of the source, which are not always exact repeats. Equal entries are not always repeated.

Test system: recurrent or metastatic (R/M) adenoid cystic carcinoma (ACC)
Assay: Phase 2 single-arm study of rivoceranib in R/M ACC: response, DoR, PFS, TTP per RECIST V1.1
Assay type: in vivo, human
Settings: for estimated PFS rate at 9 months: efficacy evaluable
Text: Overall design: An ongoing Phase 2, multicenter, open-label, single-arm study was designed to evaluate the efficacy and safety of rivoceranib in patients with recurrent or metastatic (R/M) adenoid cystic carcinoma (ACC) of all anatomic sites of origin. The study was composed of an initial screening phase (up to 28 days), a treatment phase, and a follow-up phase.
Objectives: Primary objectives were to evaluate safety & tolerability, efficacy by objective response rate (ORR), best overall response (BOR), time to response, duration of response, disease control rate, and duration of disease control. Secondary objectives were to evaluate efficacy as measured by overall survival, progression-free survival and event-free survival. The primary efficacy endpoint was the ORR, defined as the proportion of patients who achieved confirmed complete response (CR) or partial response (PR) per Response Evaluation Criteria in Solid Tumors (RECIST) Version 1.1 (V1.1). The secondary efficacy endpoints were duration of response (DoR) assessed by the investigator and a blinded independent review committee (BIRC), progression-free survival (PFS) assessed at 6 months, 12 months, and 2 years by investigator and BIRC, Time to Progression (TTP) assessed by investigator and BIRC, and overall survival (OS) assessed at 1 and 2 years. Exploratory efficacy endpoints include ORR per CHOI response criteria (based on the journal article, Choi et al., Correlation of computed tomography and positron emission tomography in patients with metastatic gastrointestinal stromal tumor treated at a single institution with imatinib mesylate: proposal of new computed tomography response criteria. J Clin Oncol. 2007; 25(13): 1753-1759) by a blinded independent review […] (BIRC) and disease control rate (DCR) per RECIST V1.1 by Investigator and BIRC. Except for CHOI response criteria, all response endpoints were assessed per RECIST V1.1 by Investigator and BIRC.
Patients: The study was conducted at 11 study sites in the USA and South Korea. A total of 80 patients were enrolled and received at least 1 dose of study drug (rivoceranib). Fifty-three patients were enrolled in the USA and 27 patients were enrolled in Korea. Eligible patients were 18 years or older and were required to have histologically or cytologically confirmed R/M ACC of any anatomic location not amenable to curative surgery or radiotherapy. Due to the indolent nature of the disease, patients were required to have evidence of disease progression by RECIST V1.1 within the 6 months prior to study entry, evidenced by: ≥20% increase in radiologically or clinically measurable lesions or appearance of new lesions. Patients were required to have at least 1 measurable target lesion by RECIST V1.1. There were no restrictions on prior systemic therapies. Patients were permitted to have prior VEGFR TKI exposure if dosage was discontinued within 5 half-lives prior to rivoceranib treatment. The patients were permitted if they have an Eastern Cooperative Oncology Group (ECOG) performance status of 0 or 1. Patients with treated central nervous system metastases were permitted if they were stable for four weeks prior to study treatment. Eligible patients had documented primary diagnosis of solid tumor cancer of ACC for which anti-VEGFR-2 targeted therapy could be applicable. The majority of patients had primary tumors in the major (33.8%) or minor (58.8%) salivary glands; 6 patients (7.5%) had primary tumors in other locations: lung, breast, trachea, Cowper's gland, intracranial temporal lobe and lymph node. Median time from original ACC diagnosis was 69.62 months. The majority of patients (92.5%) had metastatic disease.
Dose determination: Enrolled patients initiated treatment with rivoceranib 700 mg daily (QD). Up to 3 levels of dose reduction for toxicity were permitted: 500 mg QD, 300 mg QD and 200 mg QD. Patients received treatment until disease progression, unacceptable toxicity, death or withdrawal of consent to treatment. […]

[1] = RECIST V1.1, BIRC, 700 mg QD start
[2] = RECIST V1.1, BIRC, Total N = 73, 700 mg QD start
[3] = RECIST V1.1, BIRC, Total N = 73, Kaplan-Meier, 700 mg QD start
[4] = RECIST V1.1, BIRC, VEGFRi-naïve N = 60, 700 mg QD start
[5] = RECIST V1.1, BIRC, VEGFRi-naïve N = 60, Kaplan-Meier, 700 mg QD start
[6] = RECIST V1.1, BIRC, VEGFRi-treated N = 13, 700 mg QD start
[7] = RECIST V1.1, BIRC, VEGFRi-treated N = 13, Kaplan-Meier, 700 mg QD start
[8] = RECIST V1.1, Investigator, 700 mg QD start
[9] = RECIST V1.1, Investigator, Systemic therapy-naïve N = 29, 700 mg QD start
[10] = RECIST V1.1, Investigator, Systemic therapy-treated N = 44, 700 mg QD start
[11] = RECIST V1.1, Investigator, Total N = 73, 700 mg QD start
[12] = RECIST V1.1, Investigator, Total N = 73, Kaplan-Meier, 700 mg QD start
[13] = RECIST V1.1, Investigator, VEGFRi-naïve N = 60, 700 mg QD start
[14] = RECIST V1.1, Investigator, VEGFRi-naïve N = 60, Kaplan-Meier, 700 mg QD start
[15] = RECIST V1.1, Investigator, VEGFRi-treated N = 13, 700 mg QD start
[16] = RECIST V1.1, Investigator, patients with ≥20% pre-study increase in lesions, N = 51
[17] = confirmed objective response by Investigator
[18] = within the 19.5-month follow-up, N = 80

N#CC1(c2ccc(NC(=O)c3cccnc3NCc3ccncc3)cc2)CCCC1 [Rivoceranib, N-[4-(1-cyanocyclopentyl)phenyl]-2-{[(pyridin-4-yl)methyl]amino}pyridine-3-carboxamide]
remaining (non-ORR) patients who had a tumor size reduction (700 mg QD start): about 85% | median PFS (Kaplan-Meier, patients previously treated with systemic therapy, 700 mg QD start): 8.9 months | median PFS (Kaplan-Meier, patients without any prior systemic therapy, 700 mg QD start): 13.7 months | ORR based on patients assessed as responders by either Investigator or BIRC (RECIST V1.1, 15 out of 73 patients, 700 mg QD start): 20.5% | estimated TTP rate at 6 months [1]: 80.7% | estimated TTP rate at 9 months [1]: 57.3% | estimated TTP rate at 12 months [1]: 41% | BOR: Complete Response [2]: 0% | BOR: Not Evaluable [2]: 1 (1.4) % | BOR: Partial Response [2]: 7 (9.6) % | BOR: Progressive Disease [2]: 5.5% and 4 (5.5) % | BOR: Stable Disease [2]: 61 (83.6) % | DCR (disease control rate, CR, PR or SD ≥3 months) [2]: 65.8% and 64.4% and 48 (65.8) % | Median TTP (95% CI) [2]: 9.3 (8.5-13.6) months | ORR (objective response rate) [2]: 9.6% and 7 (9.6) % | PFS landmark 6-months, % (95% CI) [2]: 80.8 (68.5-88.6) % | PFS landmark 12-months, % (95% CI) [2]: 38.2 (25.0-51.3) % | DoR 25th percentile [3]: 5.5 months | DoR 75th percentile [3]: 8.3 months | DoR Median (95% CI) [3]: 7.2 months and 7.2 (3.5, 8.4) months | Median PFS (95% CI) [3]: 9.2 months and 9.2 (8.0, 12.9) months | BOR: Complete Response [4]: 0% | BOR: Not Evaluable [4]: 1 (1.7) % | BOR: Partial Response [4]: 5 (8.3) % | BOR: Progressive Disease [4]: 3 (5.0) % | BOR: Stable Disease [4]: 51 (85) % | DCR (disease control rate, CR, PR or SD ≥3 months) [4]: 39 (65.0) % | Median PFS (95% CI) [4]: 9.3 (8.0-13.7) months | Median TTP (95% CI) [4]: 10.8 (8.5-13.8) months | ORR (objective response rate) [4]: 8.5% and 5 (8.3) % | PFS landmark 6-months, % (95% CI) [4]: 80.3 (66.3-88.9) % | PFS landmark 12-months, % (95% CI) [4]: 40.4 (25.6-54.6) % | DoR 25th percentile [5]: 5.4 months | DoR 75th percentile [5]: 8.3 months | BOR: Complete Response [6]: 0% | BOR: Not Evaluable [6]: 0% | BOR: Partial Response [6]: 2 (15.4) % | BOR: Progressive Disease [6]: 1 (7.7) % | BOR: Stable Disease [6]: 10 (76.9) % | DCR (disease control rate, CR, PR or SD ≥3 months) [6]: 9 (69.2) % | Median PFS (95% CI) [6]: 8.9 (5.3-12.9) months | Median TTP (95% CI) [6]: 8.9 (5.3-12.9) months | PFS landmark 6-months, % (95% CI) [6]: 83.1 (47.2-95.5) % | PFS landmark 12-months, % (95% CI) [6]: 26.0 (4.3-56.2) % | DoR 25th percentile [7]: 5.5 months | DoR 75th percentile [7]: 7.1 months | DoR Median (95% CI) [7]: 6.3 (5.5, 7.1) months | estimated PFS rate at 9 months [1]: 53.5% | estimated TTP rate at 6 months [8]: 76.2% | estimated TTP rate at 9 months [8]: 57.0% | estimated TTP rate at 12 months [8]: 43.7% | Median time to response (RECIST V1.1, Investigator, 11 responders): 57.0 days | BOR: Complete Response [9]: 0% | BOR: Not Evaluable [9]: 0% | BOR: Partial Response [9]: (20.7) % | BOR: Progressive Disease [9]: (10.3) % | BOR: Stable Disease [9]: (69.0) % | DoR 25th percentile [9]: 7.4 months | DoR 75th percentile [9]: 14.9 months | DoR Median [9]: 13.5 months | BOR: Complete Response [10]: 0% | BOR: Not Evaluable [10]: 0% | BOR: Partial Response [10]: (11.4) % | BOR: Progressive Disease [10]: (11.4) % | BOR: Stable Disease [10]: (77.3) % | DoR 25th percentile [10]: 14.6 months | DoR 75th percentile [10]: 17.3 months | DoR Median [10]: 17.3 months | BOR: Complete Response [11]: 0% | BOR: Not Evaluable [11]: 0% | Median TTP (95% CI) [11]: 9.1 (8.5-13.8) months | PFS landmark 6-months, % (95% CI) [11]: 76.3 (64.2-84.8) % | PFS landmark 12-months, % (95% CI) [11]: 39.7 (27.4-51.6) % | DoR 25th percentile [12]: 11.9 months | DoR 75th percentile [12]: 17.3 months | DoR Median (95% CI) [12]: 14.9 months and 14.9 (4.9, 17.3) months | Median PFS (95% CI) [12]: 9.0 (7.5-12.8) months | BOR: Complete Response [13]: 0% | BOR: Not Evaluable [13]: 0% | BOR: Partial Response [13]: 11 (18.3) % | BOR: Progressive Disease [13]: 6 (10.0) % | BOR: Stable Disease [13]: 43 (71.7) % | DCR (disease control rate, CR, PR or SD ≥3 months) [13]: 37 (61.7) % | Median PFS (95% CI) [13]: 9.0 (7.3-12.8) months | Median TTP (95% CI) [13]: 9.0 (7.3-13.5) months | ORR (objective response rate) [13]: 11 (18.3) % | PFS landmark 6-months, % (95% CI) [13]: 74.5 (60.7-84.1) % | PFS landmark 12-months, % (95% CI) [13]: 38.7 (25.5-51.8) % | DoR 25th percentile [14]: 11.9 months | DoR 75th percentile [14]: 17.3 months | DoR Median (95% CI) [14]: 14.9 (4.9, 17.3) months | BOR: Complete Response [15]: 0% | BOR: Not Evaluable [15]: 0% | BOR: Partial Response [15]: 0% | BOR: Progressive Disease [15]: 2 (15.4) % | BOR: Stable Disease [15]: 11 (84.6) % | DCR (disease control rate, CR, PR or SD ≥3 months) [15]: 10 (76.9) % | Median PFS (95% CI) [15]: 10.6 (7.1-17.7) months | Median TTP (95% CI) [15]: 16.4 (8.9-19.1) months | ORR (objective response rate) [15]: 0% | PFS landmark 6-months, % (95% CI) [15]: 84.6 (51.2-95.9) % | PFS landmark 12-months, % (95% CI) [15]: 43.0 (13.8-69.8) % | estimated PFS rate at 9 months [8]: 53.6% | Maximum Change in SOT During the first 6 Months on Treatment with Rivoceranib, Mean [16]: −9.9 mm | Maximum Change in SOT During the first 6 Months on Treatment with Rivoceranib, Median [16]: −7.0 mm | Maximum Change in SOT at Any Time on Treatment, Mean [16]: −10.4 mm | Maximum Change in SOT at Any Time on Treatment, Median [16]: −8.0 mm | patients with initial response observed at 100 mg [17]: 1 patient | patients with initial response observed at 200 mg [17]: 1.3% | patients with initial response observed at 300 mg [17]: 4.1% | patients with initial response observed at 500 mg [17]: 5.5% | patients with initial response observed at 700 mg [17]: 2.7% | patients who died due to disease progression or cancer despite treatment [18]: ≥ 21.3% | patients who had disease progression despite treatment [18]: 48.5%
